According to patent US20150031655A1, “COMBINATION OF LIVER X RECEPTOR MODULATOR AND ESTROGEN RECEPTOR MODULATOR FOR THE TREATMENT OF AGE-RELATED DISEASES” (UNIVERSITY OF NORTH DAKOTA, priority 2011, published 2015):

Key:
LXRβ = target: T1, LXRβ (Homo sapiens, UniProt P55055); assay: Western blot of LXRβ levels in the nucleus, SH-SY5Y cells; assay type: cell-based; set-up: endogenous in cells; host or cells: SH-SY5Y human neuroblastoma cells; details: for LXRβ protein levels in the nucleus: 24 h, treatment alone vs control
T1 sequence (P55055 1-460): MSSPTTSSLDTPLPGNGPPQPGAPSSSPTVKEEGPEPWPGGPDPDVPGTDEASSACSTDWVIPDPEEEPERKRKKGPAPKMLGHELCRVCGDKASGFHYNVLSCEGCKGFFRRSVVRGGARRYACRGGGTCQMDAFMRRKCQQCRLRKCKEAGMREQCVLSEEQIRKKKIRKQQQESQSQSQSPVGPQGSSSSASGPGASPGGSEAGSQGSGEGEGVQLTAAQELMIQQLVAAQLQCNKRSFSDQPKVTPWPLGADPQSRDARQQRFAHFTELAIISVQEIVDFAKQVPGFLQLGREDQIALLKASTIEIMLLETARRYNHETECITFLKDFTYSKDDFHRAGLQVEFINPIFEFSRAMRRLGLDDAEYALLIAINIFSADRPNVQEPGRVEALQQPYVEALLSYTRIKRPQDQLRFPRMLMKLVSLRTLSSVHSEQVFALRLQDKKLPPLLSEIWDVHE
Description: (§1) Human neuroblastoma SH-SY5Y cells were grown in DMEM/F12 medium containing 10% fetal bovine serum (FBS) and 1% antibiotic/antimycotic mix. Cells were maintained at 37° C. in a saturated humidity atmosphere containing 95% air and 5% CO2.
Treated SH-SY5Y cells were washed with PBS and trypsinized to collect the cells and centrifuged at 5000 g. The pellet was washed again with PBS and homogenized in NE-PER tissue protein extraction reagent (Thermo Scientific, Rockford, Ill.) supplemented with protease and phosphatase inhibitors. Protein concentrations from the cytosolic and nuclear homogenates were determined with BCA protein assay.
Proteins (10 μg) were separated on SDS-PAGE gels, transferred to a polyvinylidene difluoride membrane (BioRad, Hercules, Calif.), and incubated with the following monoclonal antibodies: anti-TH mouse antibody (1:1000; Sigma Aldrich, Saint Louis, Mo.), anti-α-synuclein mouse antibody (1:500; Chemicon, Temecula, Calif.), anti-ERα rabbit antibody (1:500; Abcam, Cambridge, Mass.), anti-ERβ rabbit antibody (1:200; Upstate, Lake Placid, N.Y.), anti-LXRα rabbit antibody (1:500; Abcam, Cambridge, Mass.), anti-LXRβ mouse antibody (1:500; Abcam, Cambridge, Mass.).
β-actin and Lamin A were used as a gel loading control for cytosolic homogenates and nuclear homogenates respectively. The blots were developed with enhanced chemiluminescence (Immmun-star HRP chemiluminescent kit, Bio-Rad, Hercules, Calif.). Bands were visualized on a polyvinylidene difluoride membrane and analyzed by LabWorks 4.5 software on a UVP Bioimaging System (Upland, Calif.). Quantification of results was performed by densitometry and the results analyzed as total integrated densitometric values (arbitrary units).

ERα [1] = target: T2, ERα (Homo sapiens, UniProt P03372); assay: Western blot of ERα levels in the nucleus (nuclear translocation), SH-SY5Y cells; assay type: cell-based; details: 24 h, treatment alone vs control
T2 construct: endogenous in cells; host or cells: SH-SY5Y human neuroblastoma cells
T2 sequence (P03372 1-595): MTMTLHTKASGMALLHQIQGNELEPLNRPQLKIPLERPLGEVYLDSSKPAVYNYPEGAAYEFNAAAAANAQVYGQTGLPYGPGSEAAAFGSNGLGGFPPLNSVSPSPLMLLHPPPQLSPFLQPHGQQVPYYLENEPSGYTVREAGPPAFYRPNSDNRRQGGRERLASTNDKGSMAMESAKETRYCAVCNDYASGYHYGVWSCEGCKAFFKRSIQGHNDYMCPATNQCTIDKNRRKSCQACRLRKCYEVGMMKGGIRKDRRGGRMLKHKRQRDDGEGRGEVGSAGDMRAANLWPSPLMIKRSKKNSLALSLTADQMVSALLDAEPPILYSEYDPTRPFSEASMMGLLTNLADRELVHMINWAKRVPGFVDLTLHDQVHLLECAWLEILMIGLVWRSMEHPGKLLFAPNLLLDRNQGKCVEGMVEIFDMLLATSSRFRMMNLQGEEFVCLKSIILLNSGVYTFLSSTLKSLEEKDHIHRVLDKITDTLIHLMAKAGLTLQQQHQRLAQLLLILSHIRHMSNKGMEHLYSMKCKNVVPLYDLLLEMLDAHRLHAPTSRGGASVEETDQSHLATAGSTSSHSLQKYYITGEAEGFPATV
Description: as §1

LXRα/β = assay: EMSA, binding of LXRα/β to probe for the LXRE in the α-synuclein promoter; assay type: cell-based, human; details: for binding of LXRα/β to the exogenous DNA sequence containing the LXRE: nuclear extracts of treated SH-SY5Y, treatment alone vs control
ERα/β = assay: EMSA, binding of nuclear ER to probe for the ERE half site in the TH promoter; assay type: cell-based, human; details: nuclear extracts of treated SH-SY5Y, treatment alone vs control
ARPE-19 cells [2] = assay: ROS levels in ARPE-19 cells; assay type: cell-based; details: ARPE-19, 24 h
ARPE-19 cells [3] = assay type: cell-based
Description: ARPE-19 cells were treated with 0, 10 or 25 μM 27-OHC for 24 hours.

ERα [4] = target: T2, ERα; assay: ChIP, ERα binding to the ERE half site in the TH promoter; assay type: cell-based; details: SH-SY5Y, treatment alone vs control
Description: as §1
ChIP analysis was performed to evaluate the extent of ERα/ERβ and LXRα/LXRβ binding to the DNA elements in the TH promoter and α-synuclein promoter regions respectively using “SimpleChIP™ Enzymatic Chromatic IP kit” from Cell Signaling (Boston, Mass.).
Briefly, cells from each treatment group (3×10^6 cells) were washed with PBS, trypsinized, centrifuged at 5000 g. The pellet containing the cells was further washed with PBS and cross-linked using 37% formaldehyde for 15 min followed by the addition of glycine solution to cease the cross-linking reaction.
The cells were washed with 4× volumes of 1×PBS and centrifuged at ˜220 g for 5 min. The pellet was resuspended and incubated for 10 min in 5 ml of tissue lysis buffer containing DTT and protease and phosphatase inhibitors. The subsequent steps to isolate the cross-linked chromatin were performed according to the manufacturer's protocol.
The cross-linked chromatin from each sample was apportioned into four equal parts.

Row | LXRβ protein levels in the nucleus (LXRβ) | 27-OHC-induced increase in LXRβ in the nucleus (LXRβ; co-treatment with 10 μM 27-OHC) | 27-OHC-induced increase in LXRα/β binding to the LXRE consensus motif (LXRα/β; co-treatment with 27-OHC) | Structure (SMILES) | nuclear translocation / nuclear levels of ERα (ERα [1]) | binding of LXRα/β to the exogenous DNA sequence containing the LXRE (LXRα/β) | binding of nuclear ER to the DNA probe corresponding to the ERE-half site on the TH promoter (ERα/β) | reactive oxygen species (ROS) levels (ARPE-19 cells [2]; 10 μM, alone vs control) | toxicity to RPE cells (ARPE-19 cells [3]) | Aβ peptide production (ARPE-19 cells [3]; ARPE-19, 0, 10 or 25 μM, 24 hours) | Ca^2+ homeostasis (ARPE-19 cells [3]; ARPE-19, 10 or 25 μM, 24 hours) | ROS generation (ARPE-19 cells [3]; ARPE-19, 10 or 25 μM, 24 hours) | glutathione (ARPE-19 cells [3]; ARPE-19, 10 or 25 μM, 24 hours) | levels of ER stress specific markers caspase 12 and gadd153 (ARPE-19 cells [3]; ARPE-19, 10 or 25 μM, 24 hours) | levels of NFκB and heme-oxygenase 1 (HO-1) (ARPE-19 cells [3]; ARPE-19, 10 or 25 μM, 24 hours) | mitochondrial membrane potential (ARPE-19 cells [3]; ARPE-19, 10 or 25 μM, 24 hours) | ERα binding to the ERE on the TH promoter (ERα [4]) | 27-OHC-induced increase in ROS levels (ARPE-19 cells [2]; co-treatment with 27-OHC, all at 10 μM)
1 | reduced | significantly attenuated | mitigates | CC(C)CCC[C@@H](C)[C@H]1CC[C@H]2[C@@H]3C[C@@H]4O[C@@]45C[C@@H](OS(=O)(=O)O)CC[C@]5(C)[C@H]3CC[C@]12C [ECHS, 5α,6α-epoxycholesterol-3-sulfate] | – | decreased | – | – | – | – | – | – | – | – | – | – | – | reduced
2 | more pronounced increase | – | – | Cl.O=C(O)Cc1cccc(OCCCN(Cc2cccc(C(F)(F)F)c2Cl)CC(c2ccccc2)c2ccccc2)c1 [GW3965, 3-[3-[N-(2-Chloro-3-trifluoromethylbenzyl)-(2,2-diphenylethyl)amino]propyloxy]phenylacetic acid hydrochloride] | – | – | – | – | – | – | – | – | – | – | – | – | – | –

Row | Structure (SMILES) | LXRβ protein levels in the nucleus (LXRβ) | 27-OHC-induced increase in LXRβ in the nucleus (LXRβ; co-treatment with 10 μM 27-OHC) | 27-OHC-induced increase in LXRα/β binding to the LXRE consensus motif (LXRα/β; co-treatment with 27-OHC) | nuclear translocation / nuclear levels of ERα (ERα [1]) | binding of LXRα/β to the exogenous DNA sequence containing the LXRE (LXRα/β) | binding of nuclear ER to the DNA probe corresponding to the ERE-half site on the TH promoter (ERα/β) | reactive oxygen species (ROS) levels (ARPE-19 cells [2]; 10 μM, alone vs control) | toxicity to RPE cells (ARPE-19 cells [3]) | Aβ peptide production (ARPE-19 cells [3]; ARPE-19, 0, 10 or 25 μM, 24 hours) | Ca^2+ homeostasis (ARPE-19 cells [3]; ARPE-19, 10 or 25 μM, 24 hours) | ROS generation (ARPE-19 cells [3]; ARPE-19, 10 or 25 μM, 24 hours) | glutathione (ARPE-19 cells [3]; ARPE-19, 10 or 25 μM, 24 hours) | levels of ER stress specific markers caspase 12 and gadd153 (ARPE-19 cells [3]; ARPE-19, 10 or 25 μM, 24 hours) | levels of NFκB and heme-oxygenase 1 (HO-1) (ARPE-19 cells [3]; ARPE-19, 10 or 25 μM, 24 hours) | mitochondrial membrane potential (ARPE-19 cells [3]; ARPE-19, 10 or 25 μM, 24 hours) | ERα binding to the ERE on the TH promoter (ERα [4]) | 27-OHC-induced increase in ROS levels (ARPE-19 cells [2]; co-treatment with 27-OHC, all at 10 μM)
3 | C[C@@H](CO)CCC[C@@H](C)[C@H]1CC[C@H]2[C@@H]3CC=C4C[C@@H](O)CC[C@]4(C)[C@H]3CC[C@]12C [27-OHC, 27-hydroxycholesterol] | increases | – | – | decrease | increases | lower binding | increases | toxic | dose-dependently increased | dyshomeostasis | ROS generation | glutathione depletion | increased | increased | reduced | no significant attenuation | –
